Article PMC4735769 (Cancer Medicine, 2015)

Columns and labels:
[1] = topotecan plasma pharmacokinetics, total and lactone (HPLC fluorescence, noncompartmental); details: for T min: total topotecan
Method: The calibration curve was linear from 0.125 to 50 ng/mL, with the regression meeting acceptable criteria, with patient samples calculated as described above.
(§1) Plasma concentration‐time data for both drugs were analyzed by noncompartmental methods using Phoenix WinNonlin 6.3 (Pharsight Corp., Mountain View, CA).

[2] = tested on: pediatric preclinical cell models; details: read-out: median IC50; cited from earlier work
[3] = sorafenib plasma pharmacokinetics (LC-MS/MS, noncompartmental); type: in vivo, human
Method: Plasma samples were analyzed by protein precipitation. Calibration curves, linear from 5 to 2500 ng/mL with an R ^2 of >0.99, were generated for each run, with patient sample concentrations back‐calculated from the corresponding regression line.
as §1

[4] = tested on: pediatric patients with relapsed solid tumors; test: phase I dose escalation of oral sorafenib and topotecan: toxicity, DLT, MTD; details: osteosarcoma patient with prior doxorubicin 450 mg/m^2, on digoxin and lisinopril; cycle 2
Method: Intra‐patient dose escalation was not allowed on this study. […] Total daily dose for patients was rounded to the nearest 50 mg tablet size based on patient BSA (a dosing nomogram was used to minimize inter‐patient dosing variability). Patients ingested tablets with clear liquids (2–4 ounces for children <12 and 4 ounces for ≥12 years) and while dispersion in liquid was allowed, all patients swallowed tablets.
The capsules could not be chewed, crushed, or divided and were swallowed whole. […] Vials were dispensed in light protective bags and kept refrigerated. The reconstituted formulation was drawn up in oral syringes to the prescribed volume and administered to the patient immediately after reconstitution.
This dose‐escalation study used a standard 3 + 3 design, with up to six patients being enrolled on a DL. Enrollment to subsequent DLs was determined by the number of enrolled patients, the number with DLTs, and the number at risk for DLTs.
Toxicity was graded according to the Common Terminology Criteria for Adverse Events version 4.0 (http://ctep.cancer.gov). […]

pediatric patients = details: phase I single-agent pediatric trial; cited from earlier work
[5] = Cycle 1, day 28, 150 mg/m^2 (n = 8), steady state, sorafenib alone
[6] = Cycle 1, day 28, 200 mg/m^2 (n = 1), steady state, sorafenib alone
[7] = Cycle 2, day 1, 150 mg/m^2 (n = 6), steady state, with topotecan
[8] = Cycle 2, day 1, 200 mg/m^2 (n = 1), steady state, with topotecan

## CC[C@@]1(O)C(=O)OCc2c1cc1n(c2=O)Cc2cc3c(CN(C)C)c(O)ccc3nc2-1 [Topotecan]
[1]; cycle 1 day 1 vs cycle 2 day 1
  drug–drug interaction, topotecan PK profiles in presence and absence of sorafenib: no apparent drug–drug interaction
[1]; Cycle 1 Day 1 – 1.0 mg/m^2 (n = 3), without sorafenib
  T min: 4.7 (±1.1) h
[1]; Cycle 2 Day 1 – 1.0 mg/m^2 (n = 3), sorafenib at steady state
  T min: 9.2 (±3.6) h

## CNC(=O)c1cc(Oc2ccc(NC(=O)Nc3ccc(Cl)c(C(F)(F)F)c3)cc2)ccn1 [Sorafenib]
[2]
  IC50: 4.3 µM
[3]; [5]
  C avg: 5400 ± 2600 ng/mL
  C max: 6800 ± 3500 ng/mL
  C min: 2900 ± 2500 ng/mL
  T max: 4.0 ± 3.3 h
  T min: 4.6 ± 3.4 h
[3]; [6]
  C avg: 7600 ng/mL
  C min: 4900 ng/mL
  T max: 3 h
  T min: 8 h
[3]; [7]
  C avg: 4500 ± 3800 ng/mL
  C min: 3100 ± 2800 ng/mL
  T min: 4.3 ± 2.7 h
[3]; [8]
  C avg: 9800 ng/mL
  C min: 6700 ng/mL
  T min: 5 h
[3]; cycle 1 day 28 vs cycle 2 day 1, all dose levels
  dose-normalized AUC, exposure to sorafenib with vs without topotecan: comparable amounts of exposure
[4]
  left ventricular ejection fraction on restart of sorafenib: ejection fraction again fell to grade 3
Pediatric patients
  dose-limiting toxicities (DLTs): rash and hypertension
